TGI and GI50 data for 15 molecules are collected here from PubChem BioAssay (NCI).

Test systems include HT29 colon; KM12 colon; MOLT-4 leukemia; OVCAR-4 ovarian; RPMI-8226 leukemia; SF-295 CNS; SK-MEL-5 melanoma; SNB-75 CNS; NCI/ADR-RES ovarian.
What all share (assay): NCI tumour cell line growth inhibition, 48 h

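Exposure lasted 48 hours, with cells grown in 96-well plates and compounds tested at five concentrations. GI50 is the concentration that inhibits growth by half. The concentration for full growth arrest is given as TGI.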 Bounds are passed on as bounds.

As to `O=[N+]([O-])c1ccccc1C=NC12CC3CC(CC(C3)C1)C2`, the TGI with HT29 colon, in the test on KM12 colon, in the test on MOLT-4 leukemia, in the test on OVCAR-4 ovarian, with RPMI-8226 leukemia and with SF-295 CNS was greater than 100 µM in each case. Moreover, the TGI in the test with SK-MEL-5 melanoma and with SNB-75 CNS was greater than 100 µM in each case.
As to `CNS(=O)(=O)NN(C)S(=O)(=O)c1ccc2ccccc2c1`, the TGI with HT29 colon, with KM12 colon, in the test with MOLT-4 leukemia, in the test on OVCAR-4 ovarian, with RPMI-8226 leukemia and in the test with SF-295 CNS was greater than 100 µM in each case. The TGI with SK-MEL-5 melanoma and with SNB-75 CNS was greater than 100 µM throughout.
Turning to `O=C(Nc1cc(Cl)cc(Cl)c1)/C(Cc1nc2ccccc2[nH]c1=O)=N/NC(=O)c1ccncc1`, the TGI with KM12 colon, in the test with MOLT-4 leukemia, in the test on OVCAR-4 ovarian, with RPMI-8226 leukemia, with SF-295 CNS and in the test with SK-MEL-5 melanoma was greater than 100 µM in each case.
As to `CC1C[C@]2(C[C@@H](C)C(=O)O2)O[C@@H]2CC3(C)[C@@H]4CCC5C(C)(C)OC(=O)C[C@H]6OO[C@]4(CC[C@]3(C)C12)CC56O` (stereo partly specified), the TGI in the test on HT29 colon, with OVCAR-4 ovarian, with RPMI-8226 leukemia, with SF-295 CNS, in the test with SK-MEL-5 melanoma and with SNB-75 CNS was greater than 100 µM throughout.
Take `COc1ccc2c(c1)CC1c3c(ccc(OC)c3O)CC2N1C` (stereo unspecified): the TGI with HT29 colon is 57.5 µM; in the test with KM12 colon it was greater than 89.8 µM; in the test with MOLT-4 leukemia, 73.8 µM; in the test with OVCAR-4 ovarian it was greater than 100 µM; in the test with RPMI-8226 leukemia, 53.2 µM; with SF-295 CNS it was 47.1 µM. Moreover, the results for the TGI in the test on SK-MEL-5 melanoma and in the test with SNB-75 CNS were 32.7 µM and greater than 100 µM, respectively.
As for `CC1(C)C=N[N+]2(C)C3C=CC(CC3)C12` (stereo unspecified), the TGI in the test on HT29 colon, with KM12 colon, in the test on MOLT-4 leukemia, in the test on RPMI-8226 leukemia, with SF-295 CNS and with SK-MEL-5 melanoma was greater than 100 µM in each case. Further, the TGI with SNB-75 CNS was greater than 100 µM.
Take `O=C(CC1(O)C(=O)Nc2ccccc21)c1ccc(O)cc1` (stereo unspecified): the TGI in the test on HT29 colon, with KM12 colon, in the test with MOLT-4 leukemia, in the test on OVCAR-4 ovarian, in the test on RPMI-8226 leukemia and with SF-295 CNS was greater than 100 µM each time. For the same molecule, the TGI in the test with SK-MEL-5 melanoma and with SNB-75 CNS was greater than 100 µM each time.
For `C=C1C2CC(OC(C)=O)C3(C)C(c4ccoc4)OC(=O)[C@@H](O)[C@]13OC1C[C@H](OC(C)=O)C(C)(C)[C@H](CC(=O)OC)[C@]12C` (stereo partly specified), the TGI in the test on HT29 colon, in the test with KM12 colon, with MOLT-4 leukemia, with OVCAR-4 ovarian, in the test on RPMI-8226 leukemia and in the test with SF-295 CNS was greater than 100 µM each time. Also, the TGI in the test with SK-MEL-5 melanoma and with SNB-75 CNS was greater than 100 µM in each case.
As to `CC(=O)[CH-]C(=O)c1ccccc1.CC(=O)[CH-]C(=O)c1ccccc1.Cl.[O-]c1ccccn1.[O-]c1ccccn1.[Ti+4]`, the GI50 in the test with HT29 colon is greater than 100 µM; with KM12 colon it was greater than 100 µM; with MOLT-4 leukemia, greater than 100 µM; in the test on OVCAR-4 ovarian it was greater than 100 µM; in the test on RPMI-8226 leukemia it was greater than 100 µM; in the test on SF-295 CNS, 47.6 µM. Further, the GI50 in the test on SK-MEL-5 melanoma and with SNB-75 CNS was greater than 100 µM each time. In addition, the TGI with HT29 colon, in the test on KM12 colon, with MOLT-4 leukemia, with OVCAR-4 ovarian, in the test on RPMI-8226 leukemia and with SF-295 CNS was greater than 100 µM in each case. The TGI in the test on SK-MEL-5 melanoma and with SNB-75 CNS was greater than 100 µM each time.
Take `CCCCc1n(Cc2ccc3ccccc3c2)cc[n+]1Cc1ccc2ccccc2c1`: the GI50 in the test with MOLT-4 leukemia was 1.39 µM; in the test with NCI/ADR-RES ovarian, 15.8 µM; with SF-295 CNS, 1.3 µM; in the test on SK-MEL-5 melanoma, 0.612 µM; in the test on SNB-75 CNS it was 0.908 µM. Moreover, the TGI in the test with MOLT-4 leukemia was 3.4 µM; in the test with NCI/ADR-RES ovarian it was 39.8 µM; with SF-295 CNS, 2.65 µM; with SK-MEL-5 melanoma, 1.86 µM; in the test on SNB-75 CNS it was 2.4 µM.
With `COc1ccc2c(c1)[n+]([O-])c(-c1ccc(C)cc1)c(N)[n+]2[O-]`, the TGI in the test on HT29 colon, with KM12 colon, with OVCAR-4 ovarian, with RPMI-8226 leukemia, in the test on SF-295 CNS and with SK-MEL-5 melanoma was greater than 100 µM each time. This molecule also yielded a TGI with SNB-75 CNS greater than 100 µM.
For `CC12CO[C@@](C)(CC(S(=O)(=O)c3ccccc3)C1)O2` (stereo partly specified), the TGI in the test with HT29 colon, in the test with KM12 colon, in the test with MOLT-4 leukemia, with OVCAR-4 ovarian, in the test with RPMI-8226 leukemia and in the test on SF-295 CNS was greater than 100 µM each time. Besides, the TGI in the test on SK-MEL-5 melanoma and with SNB-75 CNS was greater than 100 µM in each case.
Take `CCOC(=O)C1=C(C)N(NC(N)=O)C(C)(O)C12CCOC2=O` (stereo unspecified): the TGI with HT29 colon, in the test on KM12 colon, with MOLT-4 leukemia, in the test on OVCAR-4 ovarian, with RPMI-8226 leukemia and in the test on SF-295 CNS was greater than 100 µM throughout. For the same molecule, the TGI in the test with SK-MEL-5 melanoma and in the test on SNB-75 CNS was greater than 100 µM throughout.
With `CCN(CC)C(=O)N1CCN(C=S)CC1`, the TGI in the test on HT29 colon, in the test on KM12 colon, with MOLT-4 leukemia, in the test on OVCAR-4 ovarian, with SK-MEL-5 melanoma and in the test on SNB-75 CNS was greater than 100 µM in each case.
For `CCOC(=N)CC(=O)Nc1cccc(Cl)c1`, the TGI with HT29 colon, with KM12 colon, with MOLT-4 leukemia, in the test on OVCAR-4 ovarian, in the test with SF-295 CNS and in the test on SK-MEL-5 melanoma was greater than 100 µM throughout. In the test on SNB-75 CNS, this molecule yielded a TGI greater than 100 µM.
